DBAASP
Converted amounts (≈) assume the structure as drawn.

Legend:
Assay in all cases: ≥ marks a high value that may be exact or a test limit, other limits are often not marked, values filed in µg/mL are converted to µM
[1] = tested on: Staphylococcus aureus ATCC 12600
[2] = tested on: Escherichia coli ATCC 11775
[3] = tested on: Botrytis cinerea
[4] = tested on: Candida albicans ATCC 10231
[5] = tested on: Candida albicans F7-39/IDE99
[6] = tested on: Staphylococcus aureus
[7] = tested on: Pseudomonas aeruginosa
[8] = tested on: Bacillus subtilis 168
[9] = tested on: Escherichia coli B
[10] = tested on: Bacillus subtilis
[11] = tested on: Staphylococcus aureus USA 100
[12] = tested on: Pseudomonas aeruginosa Ps4
[13] = tested on: Salmonella typhimurium KCTC 1926
[14] = tested on: Escherichia coli KCTC 1682
[15] = tested on: Bacillus subtilis KCTC 3068
[16] = tested on: Pseudomonas aeruginosa KCTC 1637
[17] = tested on: Staphylococcus aureus KCTC 1621
[18] = tested on: Staphylococcus aureus CCARM 3089
[19] = tested on: Staphylococcus epidermidis KCTC 1917
[20] = tested on: Klebsiella pneumoniae
[21] = tested on: Escherichia coli ATCC 25922
[22] = tested on: Escherichia coli ATCC 8739
[23] = tested on: Staphylococcus aureus ATCC 25923
[24] = tested on: Escherichia coli
[25] = tested on: Streptococcus pyogenes
[26] = tested on: Salmonella typhimurium
[27] = tested on: Proteus vulgaris
[28] = tested on: Staphylococcus epidermidis
[29] = tested on: Pectobacterium carotovorum
[30] = tested on: Enterococcus faecium
[31] = tested on: Candida albicans ATCC 90028
[32] = tested on: Staphylococcus aureus USA 300
[33] = tested on: Pseudomonas aeruginosa ATCC 9027

Question: For `CC(C)C[C@H](NC(=O)[C@H](C)NC(=O)[C@H](CO)NC(=O)[C@H](C)NC(=O)[C@@H](NC(=O)[C@H](CCCCN)NC(=O)[C@H](CCCCN)NC(=O)[C@@H](NC(=O)[C@H](CC(C)C)NC(=O)CNC(=O)[C@H](CC(C)C)NC(=O)[C@H](CC(C)C)NC(=O)[C@H](CC(=O)O)NC(=O)[C@@H](N)Cc1ccccc1)C(C)C)C(C)C)C(N)=O` [FDLLGLVKKVASAL], which MIC [1] is on record?
Answer: ≥ 50 µM

Question: What about the MIC [2] of the same compound?
Answer: ≥ 100 µM

Question: And the MIC [3]?
Answer: 5 µM (≈ 7.36 µg/mL)

Question: And the MIC [4]?
Answer: 100 µM (≈ 147 µg/mL)

Question: Which MIC [5] does the source give for `CC[C@H](C)[C@H](NC(=O)[C@H](Cc1cnc[nH]1)NC(=O)[C@H](CCCCN)NC(=O)[C@H](CC(C)C)NC(=O)[C@H](CC(C)C)NC(=O)[C@H](CCCCN)NC(=O)[C@H](CCSC)NC(=O)[C@H](Cc1c[nH]c2ccccc12)NC(=O)[C@H](CCCCN)NC(=O)CN)C(=O)N[C@@H](CC(C)C)C(=O)N[C@@H](CCCCN)C(N)=O` [GKWMKLLKHILK] here?
Answer: 4.5 µM (≈ 6.72 µg/mL)

Question: And the MIC [6]?
Answer: 4.5 µM (≈ 6.72 µg/mL)

Question: And the MIC [7]?
Answer: 10.7 µM (≈ 16 µg/mL)

Question: And the MIC [8]?
Answer: 0.8 µM (≈ 1.2 µg/mL)

Question: And the MIC [9]?
Answer: 2.5 µM (≈ 3.73 µg/mL)

Question: Which results are given for `CC[C@H](C)[C@H](NC(=O)[C@H](C)NC(=O)[C@H](C)NC(=O)[C@H](CC(C)C)NC(=O)[C@@H](NC(=O)[C@H](CCCCN)NC(=O)[C@H](CCCN=C(N)N)NC(=O)[C@@H]1CCCN1C(=O)[C@H](CC(C)C)NC(=O)CN)[C@@H](C)CC)C(=O)N[C@@H](C)C(=O)N[C@@H](CCCCN)C(=O)N[C@@H](CCCCN)C(=O)N[C@@H](CCCCN)C(N)=O` [GLPRKILAAIAKKK]?
Answer: MIC [5]: ≥ 100 µM; MIC [6]: > 100 µM; MIC [7]: > 100 µM; MIC [9]: ≥ 100 µM; MIC [10]: ≥ 35 µM

Question: Which results are given for `CC[C@H](C)[C@H](N)C(=O)N[C@@H](CC(C)C)C(=O)N1CCC[C@H]1C(=O)N[C@H](C(=O)N[C@@H](CC(C)C)C(=O)N[C@@H](C)C(=O)N1CCC[C@H]1C(=O)N[C@@H](CC(C)C)C(=O)N[C@H](C(=O)NCC(=O)NCC(=O)N[C@@H](CC(C)C)C(=O)N[C@@H](CC(C)C)C(N)=O)[C@@H](C)CC)[C@@H](C)CC` [ILPILAPLIGGLL]?
Answer: MIC [1]: ≥ 100 µM; MIC [2]: ≥ 100 µM

Question: How did the MIC [11] turn out when `CC[C@H](C)[C@H](N)C(=O)N[C@@H](CCCN=C(N)N)C(=O)N[C@H](C(=O)N[C@@H](CCCN=C(N)N)C(N)=O)[C@@H](C)CC` [IRIR] was run?
Answer: ≥ 100 µM

Question: For `CC[C@H](C)[C@H](N)C(=O)N[C@@H](Cc1c[nH]c2ccccc12)C(=O)N[C@@H](CCC(N)=O)C(=O)N[C@@H](CCCN=C(N)N)C(=O)N[C@@H](CC(N)=O)C(=O)N[C@H](C(=O)N[C@@H](CCCN=C(N)N)C(=O)N[C@H](C(=O)N[C@@H](CCCN=C(N)N)C(=O)N[C@@H](CCCN=C(N)N)C(N)=O)[C@@H](C)CC)[C@@H](C)CC` [IWQRNIRIRR], which MIC [12] is on record?
Answer: ≥ 177 µM

Question: What does the source list for `CC[C@H](C)[C@H](NC(=O)[C@H](C)NC(=O)[C@H](CO)NC(=O)[C@@H](NC(=O)[C@@H](NC(=O)[C@@H](NC(=O)[C@H](Cc1cnc[nH]1)NC(=O)[C@H](CC(C)C)NC(=O)[C@H](CC(=O)O)NC(=O)[C@@H](N)CCCCN)[C@@H](C)O)C(C)C)C(C)C)C(=O)N[C@@H](CC(C)C)C(=O)N[C@@H](CCC(N)=O)C(=O)N[C@@H](C)C(=O)N[C@@H](CC(C)C)C(N)=O` [KDLHTVVSAILQAL]?
Answer: MIC [1]: ≥ 66.3 µM; MIC [2]: ≥ 66.3 µM; MIC [3]: 5.31 µM (≈ 7.99 µg/mL); MIC [4]: 33.2 µM (≈ 50 µg/mL)

Question: `CC[C@H](C)[C@H](NC(=O)[C@H](CCCN=C(N)N)NC(=O)[C@H](CCCCN)NC(=O)[C@@H](NC(=O)[C@@H](NC(=O)[C@H](CCCN=C(N)N)NC(=O)[C@@H](N)CCCCN)[C@@H](C)CC)C(C)C)C(=O)N[C@@H](CCCCN)C(=O)N[C@@H](CCCCN)C(=O)N[C@@H](Cc1c[nH]c2ccccc12)C(=O)N[C@@H](CC(C)C)C(=O)N[C@@H](CCCN=C(N)N)C(N)=O` [KRIVKRIKKWLR] was tested. Which MIC [13] did it give?
Answer: 2 µM (≈ 3.25 µg/mL)

Question: And the MIC [14]?
Answer: 2 µM (≈ 3.25 µg/mL)

Question: What about the MIC [15] of the same compound?
Answer: 2 µM (≈ 3.25 µg/mL)

Question: What about the MIC [16] of the same compound?
Answer: 8 µM (≈ 13 µg/mL)

Question: What about the MIC [17] of the same compound?
Answer: 2 µM (≈ 3.25 µg/mL)

Question: And the MIC [18]?
Answer: 4 µM (≈ 6.49 µg/mL)

Question: And the MIC [19]?
Answer: 1 µM (≈ 1.62 µg/mL)

Question: With `CC[C@H](C)[C@H](NC(=O)[C@H](CCCN=C(N)N)NC(=O)[C@H](C)NC(=O)[C@H](C)NC(=O)[C@H](CC(C)C)NC(=O)[C@H](CCCCN)NC(=O)[C@H](CCCCN)NC(=O)[C@H](CCCCN)NC(=O)[C@H](CCSC)NC(=O)[C@@H]1CCCN1)C(=O)N[C@@H](CC(C)C)C(=O)N[C@@H](C)C(=O)N[C@@H](CCCCN)C(=O)N[C@H](C(=O)N[C@H](C(=O)N[C@@H](C)C(=O)N1CCC[C@H]1C(=O)N[C@H](C(=O)N[C@@H](Cc1c[nH]c2ccccc12)C(=O)O)C(C)C)C(C)C)[C@@H](C)CC` [PMKKKLAARILAKIVAPVW] as the compound, how does the MIC [20] read?
Answer: 60.9 µM (≈ 130 µg/mL)

Question: And the MIC [21]?
Answer: 11.7 µM (≈ 25 µg/mL)

Question: What about the MIC [22] of the same compound?
Answer: 7.5 µM (≈ 16 µg/mL)

Question: What about the MIC [23] of the same compound?
Answer: > 120 µM

Question: What about the MIC [24] of the same compound?
Answer: 30 µM (≈ 64 µg/mL)

Question: For `CC(C)C[C@H](NC(=O)[C@H](CCCN=C(N)N)NC(=O)[C@@H]1CCCN1C(=O)[C@H](Cc1cnc[nH]1)NC(=O)[C@@H]1CCCN1C(=O)[C@@H]1CCCN1C(=O)[C@H](CCCN=C(N)N)NC(=O)[C@@H]1CCCN1C(=O)[C@H](CCC(N)=O)NC(=O)[C@@H]1CCCN1)C(=O)O` [PQPRPPHPRL], which MIC [25] is on record?
Answer: ≥ 64 µM

Question: And the MIC [26]?
Answer: 16 µM (≈ 19.1 µg/mL)

Question: What about the MIC [7] of the same compound?
Answer: 64 µM (≈ 76.4 µg/mL)

Question: What about the MIC [27] of the same compound?
Answer: ≥ 64 µM

Question: What about the MIC [28] of the same compound?
Answer: ≥ 64 µM

Question: What about the MIC [10] of the same compound?
Answer: ≥ 64 µM

Question: What about the MIC [24] of the same compound?
Answer: 64 µM (≈ 76.4 µg/mL)

Question: `CC(C)C[C@H](NC(=O)[C@H](Cc1ccccc1)NC(=O)CNC(=O)[C@H](C)NC(=O)[C@H](Cc1ccccc1)NC(=O)[C@@H](NC(=O)[C@H](CCCN=C(N)N)NC(=O)[C@H](CC(=O)O)NC(=O)[C@H](CCCCN)NC(=O)[C@H](CCC(=O)O)NC(=O)[C@@H](N)CCC(N)=O)[C@@H](C)O)C(=O)N[C@@H](CC(C)C)C(=O)N[C@@H](CCCCN)C(=O)NCC(=O)N[C@@H](Cc1ccccc1)C(=O)NCC(=O)N[C@H](C(=O)N[C@@H](CO)C(=O)N[C@@H](C)C(=O)N[C@@H](CO)C(=O)O)[C@@H](C)O` [QEKDRTFAGFLLKGFGTSAS] was tested. Which MIC [29] did it give?
Answer: 1.34 µM

Question: Which results are given for `NC(N)=NCCC[C@H](NC(=O)[C@H](CCCN=C(N)N)NC(=O)[C@H](Cc1ccccc1)NC(=O)[C@@H]1CCCN1C(=O)[C@H](Cc1c[nH]c2ccccc12)NC(=O)[C@H](Cc1c[nH]c2ccccc12)NC(=O)[C@H](Cc1c[nH]c2ccccc12)NC(=O)[C@@H]1CCCN1C(=O)[C@H](Cc1ccccc1)NC(=O)[C@H](CCCN=C(N)N)NC(=O)[C@@H](N)CCCN=C(N)N)C(=O)O` [RRFPWWWPFRR]?
Answer: MIC [13]: 4.73 µM (≈ 8 µg/mL); MIC [14]: 9.47 µM (≈ 16 µg/mL); MIC [15]: 2.37 µM (≈ 4 µg/mL); MIC [16]: 9.47 µM (≈ 16 µg/mL); MIC [30]: 2.37 µM (≈ 4 µg/mL); MIC [6]: 3.35 µM (≈ 5.66 µg/mL); MIC [17]: 2.37 µM (≈ 4 µg/mL); MIC [19]: 1.18 µM (≈ 2 µg/mL)

Question: `CC[C@H](C)[C@H](NC(=O)[C@H](CC(N)=O)NC(=O)[C@H](CCCN=C(N)N)NC(=O)[C@H](CCC(N)=O)NC(=O)[C@H](Cc1c[nH]c2ccccc12)NC(=O)[C@@H](N)CCCN=C(N)N)C(=O)N[C@@H](CCCN=C(N)N)C(=O)N[C@@H](CCCCN)C(=O)N[C@@H](Cc1ccc(O)cc1)C(=O)N[C@@H](CCCN=C(N)N)C(=O)N[C@@H](CCCN=C(N)N)C(N)=O` [RWQRNIRKYRR] was tested. Which MIC [12] did it give?
Answer: ≥ 153 µM

Question: Which results are given for `NC(=O)C[C@H](NC(=O)[C@H](Cc1ccccc1)NC(=O)[C@@H](N)Cc1c[nH]c2ccccc12)C(=O)O` [WFN]?
Answer: MIC [11]: ≥ 100 µM; MIC [31]: ≥ 100 µM; MIC [32]: ≥ 100 µM; MIC [33]: > 100 µM
